Assay results: patent US8735620B2, “Processes for preparing (E)-styrylbenzylsulfone compounds and uses thereof for treating proliferative disorders” (priority 2008, dated 2014)
Like-named read-outs stand apart in the source and are kept apart here.

Assays:
[1] = system: BT20 (human breast tumor cell line); assay: Cytotoxicity assay (trypan blue exclusion, 96 h), BT20; assay type: cell-based; conditions: BT20, 96 h treatment
Description: (§2) Tissue Culture and Reagents: Paclitaxel was purchased from Sigma. Cell lines were purchased from ATCC. Cell lines were routinely grown in DMEM or RPM1 (CellGro) supplemented with 10% fetal bovine serum (Atlas) and 1 unit/mL penicillin-streptomycin (Gibco).

[2] = system: DU145 (human prostate tumor cell line); assay: Cytotoxicity assay (trypan blue exclusion, 96 h), DU145; assay type: cell-based
Description: as §2

[3] = system: H157 (human lung tumor cell line); assay: Cytotoxicity assay (trypan blue exclusion, 96 h), H157; assay type: cell-based
Description: as §2

[4] = system: T47D; assay: Tumor cell killing, T47D; assay type: cell-based, human; conditions: BREAST (ER+), read-out: Tumor cell killing (IC50) concentration
Description: as §2

[5] = system: MCF-7; assay: Tumor cell killing, MCF-7; assay type: cell-based, human; conditions: MCF-7, BREAST (ER+); read-out: Tumor cell killing (IC50) concentration
Description: as §2

[6] = system: OV-CAR-3; assay: Tumor cell killing, OV-CAR-3; assay type: cell-based, human; conditions: OV-CAR-3, OVARIAN; read-out: Tumor cell killing (IC50) concentration
Description: as §2

[7] = system: MIA-PaCa2; assay: Tumor cell killing, MIA-PaCa2; assay type: cell-based, human; conditions: MIA-PaCa2, PANCREATIC; read-out: Tumor cell killing (IC50) concentration
Description: as §2

[8] = system: U87; assay: Tumor cell killing, U87; assay type: cell-based, human; conditions: U87, GLIOBLASTOMA; read-out: Tumor cell killing (IC50) concentration
Description: as §2

[9] = system: A549; assay: Tumor cell killing, A549; assay type: cell-based, human; conditions: A549, NSCLC; read-out: Tumor cell killing (IC50) concentration
Description: as §2

[10] = system: H187; assay: Tumor cell killing, H187; assay type: cell-based, human; conditions: H187, SCLC; read-out: Tumor cell killing (IC50) concentration
Description: as §2

[11] = system: N417; assay: Tumor cell killing, N417; assay type: cell-based, human; conditions: N417, SCLC; read-out: Tumor cell killing (IC50) concentration
Description: as §2

[12] = system: AGS; assay: Tumor cell killing, AGS; assay type: cell-based, human; conditions: GASTRIC, read-out: Tumor cell killing (IC50) concentration
Description: as §2

[13] = system: RF48; assay: Tumor cell killing, RF48; assay type: cell-based, human; conditions: RF48, GASTRIC; read-out: Tumor cell killing (IC50) concentration
Description: as §2

[14] = system: COLO-205; assay: Tumor cell killing, COLO-205; assay type: cell-based, human; conditions: COLO-205, COLO-RECTAL; read-out: Tumor cell killing (IC50) concentration
Description: as §2

[15] = system: SK-MEL-28; assay: Tumor cell killing, SK-MEL-28; assay type: cell-based, human; conditions: SK-MEL-28, MELANOMA; read-out: Tumor cell killing (IC50) concentration
Description: as §2

[16] = system: CEM; assay: Tumor cell killing, CEM; assay type: cell-based, human; conditions: read-out: Tumor cell killing (IC50) concentration
[17] = system: MOLT-4; assay: Tumor cell killing, MOLT-4; assay type: cell-based, human; conditions: MOLT-4, T-lymphoblastic: ALL; read-out: Tumor cell killing (IC50) concentration
[18] = system: Namalwa; assay: Tumor cell killing, Namalwa; assay type: cell-based, human; conditions: Burkitt's Lymphoma (B-cell), read-out: Tumor cell killing (IC50) concentration
[19] = system: Raji; assay: Tumor cell killing, Raji; assay type: cell-based, human; conditions: Burkitt's Lymphoma (B-cell), read-out: Tumor cell killing (IC50) concentration
[20] = system: MES-SA; assay: Tumor cell killing, MES-SA (parental uterine sarcoma); assay type: cell-based, human; conditions: MES-SA, SARCOMA; read-out: Tumor cell killing (IC50) concentration
Description: (§1) A. 6aa inhibits the growth of parental (MES-SA) and Paclitaxel resistant (MES-SA/DX5) cell lines with equal efficiency. The parental uterine sarcoma cells and the MDR positive (MES-SA/DX5) cells were plated into 6 well dishes and treated with various concentrations of 6aa and Paclitaxel for 96 h. The number of viable cells from duplicate plates was determined by trypan blue exclusion. B. Soft Agar Assays. MIA-PaCa-2 cells (1.0×10^5) were plated in soft agar containing various concentrations of each compound in triplicates. After three weeks of growth, the plates were stained for 48 h using 0.05% nitroblue tetrazolium solution. Representative plates were photographed using an Olympus stereoscope mounted with a Sony digital camera system (DKC5000, Sony Inc). Tissue Culture and Reagents: […] Cell lines were purchased from ATCC. Cell lines were routinely grown in DMEM or RPM1 (CellGro) supplemented with 10% fetal bovine serum (Atlas) and 1 unit/mL penicillin-streptomycin (Gibco). A number of tumor cell lines were tested using a dose response end point assay system. The cells were grown in either DMEM or RPMI supplemented with 10% fetal bovine serum and 1 unit/mL Penicillin-Streptomycin solution. […] Cell counts were determined from duplicate wells after 96 h of treatment. The total number of viable cells was determined by trypan blue exclusion.

[21] = system: MES-SA/DX5; assay: Tumor cell killing, MES-SA/DX5 (multidrug resistant subline); assay type: cell-based, human; conditions: for IC50: *MESSA/DX5, RESISTANT SARCOMA (multi-drug resistant), read-out: Tumor cell killing (IC50) concentration
Description: as §1

[22] = system: CEM/C2; assay: Tumor cell killing, CEM/C2 (camptothecin-resistant subline); assay type: cell-based, human; conditions: *CEM/C2, RESISTANT LEUKEMIC (multi-drug resistant); read-out: Tumor cell killing (IC50) concentration
[23] = system: panel of 60 human cancer cell-lines; assay: NCI Developmental Therapeutics Program panel of 60 human cancer cell-lines; assay type: cell-based; conditions: at nanomolar concentrations, including drug-resistant cell-lines
[24] = system: BT20, DU145, H157 and DLD1 cell lines; assay: In vitro cytotoxicity, four human tumor cell lines (SAR discussion); assay type: cell-based
Description: A number of tumor cell lines were tested using a dose response end point assay system. The cells were grown in either DMEM or RPMI supplemented with 10% fetal bovine serum and 1 unit/mL Penicillin-Streptomycin solution. The tumor cells were plated into 6 well dishes at a cell density of 1.0×10^5 cells/mL/well and compounds were added 24 h later at various concentrations. Cell counts were determined from duplicate wells after 96 h of treatment. The total number of viable cells was determined by trypan blue exclusion.
Following the synthesis of this group of compounds, their in vitro cytotoxicity was assessed using four different human tumor cell lines derived from human breast (BT20), prostate (DU145), lung (H157) and colorectal (DLD1) cancers. […] In a majority of the compounds described here, a methoxy group was kept constant at the 4th position on the aromatic ring of the benzyl moiety.

[25] = DU145, 96 h treatment, read-out: DU145 IC50
[26] = DU145, PROSTATE (AR−), Table 2, read-out: Tumor cell killing (IC50) concentration
[27] = H157, 96 h treatment, read-out: H157 IC50
[28] = H157, NSCLC, Table 2, read-out: Tumor cell killing (IC50) concentration
[29] = LEUKEMIC (second listing, r39, parental of CEM/C2)

SMILES	IC50 [1] [nM]	IC50 [2, 25] [nM]	IC50 [2, 26] [nM]	IC50 [3, 27] [nM]	IC50 [3, 28] [nM]	IC50 [4] [nM]	IC50 [5] [nM]	IC50 [6] [nM]	IC50 [7] [nM]	IC50 [8] [nM]	IC50 [9] [nM]	IC50 [10] [nM]	IC50 [11] [nM]	IC50 [12] [nM]	IC50 [13] [nM]	IC50 [14] [nM]	IC50 [15] [nM]	IC50 ([16]; LEUKEMIC (first listing, r26)) [nM]	IC50 [16, 29] [nM]	IC50 [17] [nM]	further results
COc1cc(OC)c(/C=C/S(=O)(=O)Cc2ccc(OC)c(O)c2)c(OC)c1 [6aa, (E)-2,4,6-Trimethoxystyryl-3-Hydroxy-4-Methoxybenzyl Sulfone]	10	3	7	4	7	6	4	6	4	7	10	7	5	7	5	9	7	9	10	5	IC50 [18]: 6 nM; IC50 [19]: 4 nM; IC50 [20]: 6 nM; IC50 [21]: 5 nM; sensitivity of parental and MDR positive cell lines to cell killing activity ([21]; MES-SA and MES-SA/DX5): equally sensitive; IC50 [22]: 10 nM; growth inhibition of NCI 60 cell-line panel [23]: inhibited the growth of all of the tested cell lines; cytotoxic activity, SAR statement ([24]; four human tumor cell lines): best activity in the entire series; fold more active than 6s ([24]; in all four cell lines): 8 to 10 fold
COc1ccc(CS(=O)(=O)/C=C/c2c(OC)cc(OC)cc2OC)cc1 [6s, (E)-2,4,6-Trimethoxystyryl-4-Methoxybenzyl sulfone]	20	25	25	30	30	25	3	8	8	40	20	15	8	20	10	15	40	30	30	9	IC50 [18]: 15 nM; IC50 [19]: 9 nM; IC50 [20]: 10 nM; IC50 [21]: 10 nM; IC50 [22]: 10 nM; growth inhibition of NCI 60 cell-line panel [23]: inhibited the growth of all of the tested cell lines; fold more active than 6m ([24]; cell-killing assays): 20 fold
